Experimental data from patent US20230365563A1, “QUINAZOLINE COMPOUND AND APPLICATION THEREOF” (SHANGHAI PHARMACEUTICALS HOLDING CO., LTD., priority 2020, published 2023).
Structures can show the parent of a compound that is named as a salt.

Biological target: T1, KRAS-G12D and SOS1 (Homo sapiens, UniProt P01116, G12D)
T1 construct: purchased
Assay: Inhibition of KRAS-G12D/SOS1 binding (Cisbio binding kit, 665/615 ratio), Effect Embodiment A
Settings: read-out: GTP-KRAS-G12D:SOS1 IC50
Outline: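 Compounds underwent 3-fold dilution from their storage solutions (11 points), were transferred to assay wells in duplicate with DMSO held at 1% final, and were briefly centrifuged.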

T1 sequence (P01116 1-188 isoform P01116-2 G12D): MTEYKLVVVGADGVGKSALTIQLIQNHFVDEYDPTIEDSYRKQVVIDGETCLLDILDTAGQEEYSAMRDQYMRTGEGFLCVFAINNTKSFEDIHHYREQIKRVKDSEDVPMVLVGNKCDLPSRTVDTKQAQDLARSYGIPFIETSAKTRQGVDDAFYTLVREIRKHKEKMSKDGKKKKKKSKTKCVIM

Structure (SMILES) | IC50 [µM]
CN(C)C1CN(c2nc(N3C[C@H]4CC[C@@H]3CN4)c3cc(Cl)c(-c4cc(O)cc5ccccc45)c(F)c3n2)C1 (single isomer, unassigned) [Compound 1b, (S or R)-4-(4-((1R,4R)-2,5-diazabicyclo[2.2.2]octan-2-yl)-6-chloro-2-(3-(dimethylamino)azetidin-1-yl)-8-fluoroquinazolin-7-yl)naphthalen-2-ol] | 31.9
CN(C)C1CN(c2nc(C3CCNCC3)c3cc(Cl)c(-c4cc(O)cc5ccccc45)c(F)c3n2)C1 [Compound 20a, (R or S)-4-(6-chloro-2-(3-(dimethylamino)azetidin-1l-yl)-8-fluoro-4-(piperidin-4-yl)quninazolin-7-yl)naphthalen-2-ol] | 4.8
CNCCN(C)c1nc(N2CC(N(C)C)C2)nc2c(F)c(-c3cc(O)cc4ccccc34)c(Cl)cc12 (single isomer, unassigned) [Compound 16b, (S or R)-4-(6-chloro-2-(3-(dimethylamino)azetidin-1-yl)-8-fluoro-4-(methyl(2-(methylamino)ethyl)amino)quinazolin-7-yl)naphthalen-2-ol] | 83.4
CN(C)C1CN(c2nc(N3CC4CCC(C3)N4)c3cc(Cl)c(-c4cccc5ccccc45)c(F)c3n2)C1 (single isomer, unassigned) [Compound 42b, -((R or S)-4-((1R,5S)-3,8-diazabicyclo[3.2.1]octan-3-yl)-6-chloro-8-fluoro-7-(naphthalen-1-yl)quinazolin-2-yl)-N,N-dimethylazetidin-3-amine] | 6.47
CN(C)C1CN(c2nc(N3C[C@H]4CC[C@@H]3CN4)c3cc(Cl)c(-c4cc(O)cc5ccccc45)c(F)c3n2)C1 (single isomer, unassigned) [Compound 1a, (R or S)-4-(4-((1R,4R)-2,5-diazabicyclo[2.2.2]octan-2-yl)-6-chloro-2-(3-(dimethylamino)azetidin-1-yl)-8-fluoroquinazolin-7-yl)naphthalen-2-ol] | 6.44
CN1CCC[C@H]1COc1nc(N2C3CCC2C2CCC3N2)c2cc(Cl)c(-c3cc(O)cc4ccccc34)c(F)c2n1 (single isomer, unassigned) [Compound 152a, 4-((S or R)-6-chloro-8-fluoro-2-((S)-1-methylpyrrolidin-2-yl)methoxy)-4-((1R,2R,5S,6S)-9,10-diazatricyclo[4.2.1.1^2,5]decan-9-yl)quinazolin-7-yl)naphthalen-2-ol dihydrochloride] | 1.05
CN(C)C1CN(c2nc(N=S3(=O)CCC(N)CC3)c3cc(Cl)c(-c4cc(O)cc5ccccc45)c(F)c3n2)C1 (single isomer, unassigned) [Compound 72c, (4S or R)-4-amino-1-(((R or S)-6-chloro-2-(3-(dimethylamino)azetidin-1-yl)-8-fluoro-7-(3-hydroxynaphthalen-1-yl)quinazolin-4-yl)imino)hexahydro-1-thiopyran 1-oxide] | > 200
CN1CCC[C@H]1COc1nc(N2CC3CCC(C2)N3)c2cc(Cl)c(-c3c(F)c(O)cc4ccccc34)c(F)c2n1 (single isomer, unassigned) [Compound 195a, (R or S)-4-(4-((1R,5S)-3,8-diazabicyclo[3.2.1]octan-3-yl)-6-chloro-8-fluoro-2-((S)-1-methylpyrrolidin-2-yl)methoxy)quinazolin-7-yl)-3-fluoronaphthalen-2-ol diformate] | 8.77
CN(C)C1CN(c2nc(N3CCC4(CCCN4)CC3)c3cc(Cl)c(-c4cc(O)cc5ccccc45)c(F)c3n2)C1 (single isomer, unassigned) [Compound 12a, (R or S)-4-(6-chloro-2-(3-(dimethylamino)azetidin-1-yl)-8-fluoro-4-(1,8-diazaspiro[4.5]decan-8-yl)quinazolin-7-yl)naphthalen-2-ol] | 7.12

The remaining lines, values ahead:

IC50 [µM] | Structure (SMILES)
0.31 | CCc1c(F)ccc2cccc(-c3c(F)cc4c(N5CC6CCC(C5)N6)nc(OC[C@@]56CCCN5C[C@H](F)C6)nc4c3F)c12 (single isomer, unassigned) [Compound 280b, 4-((1R,5S)-3,8-diazacyclo[3.2.1]octan-3-yl)-7-((R or S)-8-ethyl-7-fluoronaphthalen-1-yl)-6,8-difluoro-2-((2R,7aS)-2-fluorotetrahydro-1H-pyrrolidin-7a(5H)-yl)methoxy)quinazoline dihydrochloride]
0.621 | CN1CCC[C@H]1COc1nc(N2CC3CCC(C2)N3C(=O)CN)c2cc(Cl)c(-c3cc(O)cc4ccccc34)c(F)c2n1 (single isomer, unassigned) [Compound 156, 2-Amino-1-((1R,5S)-3-((S or R)-6-chloro-8-fluoro-7-(3-hydroxynaphthalen-1-yl)-2-((S)-1-methylpyrrolidin-2-yl)methoxy)quinazin-4-yl)-3,8-diazacyclo[3.2.1]octan-8-yl)ethan-1-one dihydrochloride]
0.147 | Oc1cc(-c2c(Cl)cc3c(N4CC5CCC(C4)N5)nc(OCCN4CCOCC4)nc3c2F)c2ccccc2c1 (single isomer, unassigned) [Compound 121, 4-((S or R)-4-((1R,5S)-3,8-diazabicyclo[3.2.1]octan-3-yl)-6-chloro-8-fluoro-2-(2-(morpholinylethoxy)quinazolin-7-yl)naphthalen-2-oldihydrochloride]
4.8 | CN(C)CCCOc1nc(N2CC3CCC(C2)N3)c2cc(Cl)c(-c3cc(O)cc4ccccc34)c(F)c2n1 (single isomer, unassigned) [Compound 40b, (R or S)-4-(4-((1R,5,S)-3,8-diazabicyclo[3.2.1]octan-3-yl)-6-chloro-2-(3-(dimethylamino)propoxy)-8-fluoroquinazolin-7-yl)naphthalen-2-ol]
0.673 | N=[S+]1([O-])CC2CCC(C1)N2CCCOc1nc(N2CC3CCC(C2)N3)c2cc(Cl)c(-c3cc(O)cc4ccccc34)c(F)c2n1 (single isomer, unassigned) [Compound 213b, (1R,3R or 3S,5S)-8-(3-((4-((1R,5S)-3,8-diazabicyclo[3.2.1]octan-3-yl)-6-chloro-8-fluoro-7-(3-hydroxynaphthalen-1-yl)quinazolin-2-yl)oxy)propyl)-3-imino-3λ^6-thia-8-azabicyclo[3.2.1]octane 3-oxide formate]
2.66 | Oc1cc(-c2c(Cl)cc3c(N4CC5CCC(C4)N5)nc(OC[C@@]45CCCN4C[C@H](F)C5)nc3c2F)c2c(F)c(F)ccc2c1 (single isomer, unassigned) [Compound 214b, 4-(R or S)-4-((1R,5S)-3,8-diazabicyclo[3.2.1]octane-3-yl)-6-chloro-8-fluoro-2-((2R,7aS)-2-fluorotetrahydro-1H-pyrrolidin-7a(5H)-yl) methoxy) quinazolin-7-yl)-5,6-difluoronaphthalen-2-ol diformate]
0.108 | Oc1cc(-c2ncc3c(N4C[C@H]5CC[C@@H](C4)N5)nc(OCCc4ccccn4)nc3c2F)c2ccccc2c1 [Compound 138, 4-(4-((1R,5S)-3,8-diazabicyclo[3.2.1]octan-3-yl)-8-fluoro-2-(2-(pyridin-2-yl)ethoxy)pyridyl[4,3-d]pyrimidin-7-yl)naphthalen-2-ol trifluoroacetate]
0.117 | CN1CCC[C@H]1COc1nc(N2CC3CCC(C2)N3)c2cc(F)c(-c3cc(O)cc4ccccc34)c(F)c2n1 (single isomer, unassigned) [Compound 160b, (S or R) 4-(4-((1R,5S)-3,8-diazabicyclo[3.2.1]octan-3-yl)-6,8-difluoro-2-((S)-1-methylpyrrolidin-2-yl)methoxy)quinazolin-7-yl)naphthalen-2-ol dihydrochloride]
0.316 | CN1CCC[C@H]1COc1nc(N2CCN(C(=O)CCN)[C@@H](CC#N)C2)c2cc(Cl)c(-c3cc(O)cc4ccccc34)c(F)c2n1 (single isomer, unassigned) [Compound 157, 2-((S)-1-(3-aminopropionyl)-4-((S or R)-6-chloro-8-fluoro-7-(3-hydroxynaphthalen-1-yl)-2-((S)-1-methylpyrrolidine-2-yl)methoxy)quinazolin-4-yl)-piperazin-2-yl)acetonitrile ditrifluoroacetate]
0.965 | CN1CCC[C@H]1COc1nc(N2CCN[C@@H](CC#N)C2)c2cc(Cl)c(-c3cc(O)cc4ccccc34)c(F)c2n1 (single isomer, unassigned) [Compound 153a, 2-((S)-4-((S or R)-6-chloro-8-fluoro-7-(3-hydroxynaphthalen-1-yl)-2-((S)-1-methylpyrrolidin-2-yl)methoxy)quinazolin-4-yl)piperazin-2-yl)acetonitrile]
2.36 | CN(C)C1CN(c2nc(NCCO)c3cc(Cl)c(-c4cc(O)cc5ccccc45)c(F)c3n2)C1 (single isomer, unassigned) [Compound 18b, (S or R)-4-(6-chloro-2-(3-(dimethylamino)azetidin-1-yl)-8-fluoro-4-((2-hydroxyethyl)amino)-quinazolin-7-yl)naphthalen-2-ol]
1.26 | CN(C)C1CN(c2nc(N3CC4CCC(C3)N4)c3cc(Cl)c(-c4cc(O)cc5cccnc45)c(F)c3n2)C1 (single isomer, unassigned) [Compound 45a, 8-((S or R)-4-((1R,5S)-3,8-diazabicyclo[3.2.1]octan-3-yl)-6-chloro-2-(3-(dimethylamino)azetidin-1-yl)-8-fluoroquinazolin-7-yl)quinolin-6-o1]
0.133 | CN1CC(F)(F)C[C@H]1COc1nc(N2CC3CCC(C2)N3)c2cnc(-c3cc(O)cc4ccccc34)c(F)c2n1 [Compound 135, 4-(4-((1R,5S)-3,8-diazabicyclo[3.2.1]octan-3-yl)-2-((S)-4,4-difluoro-1-methylpyrrolidin-2-yl)methoxy)-8-fluoropyridinyl[4,3-d]pyrimidin-7-yl)naphthalen-2-ol formate]
0.134 | CCCN(C)CCOc1nc(N2C[C@H]3CC[C@@H](C2)N3)c2cc(Cl)c(-c3cc(O)cc4ccccc34)c(F)c2n1 (single isomer, unassigned) [Compound 126, (S or R)-4-(4-((1R,5S)-3,8-diazabicyclo[3.2.1]octan-3-yl)-6-chloro-8-fluoro-2-(2-(methyl(propyl)amino)ethoxy)quinazolin-7-yl)naphthalen-2-ol dihydrochloride]
